These results are taken from patent US20250099431A1, “GLP-1R MODULATING COMPOUNDS” (priority 2020, published 2025).

The structures appear in SMILES notation. Like-named read-outs stand apart in the source and are kept apart here.

The EC50 is the concentration at which the effect is half-maximal.

In data set [1] the target is GLP-1R (Homo sapiens (Human), UniProt P43220). The data set can be described thus: GLP-1R activation: cAMP increase in CHO cells stably expressing GLP-1R. The format is cell-based. The conditions noted are these: 10 point dose response, 30 minutes incubation at 37° C. An outline of the steps:
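CHO cells stably expressing GLP-1R were incubated 1 h at 37 °C in medium with 1% BSA, then exposed to compound in a 10-point dose response for 30 min at 37 °C. cAMP rise was detected by HTRF (Gs Dynamic kit). EC50 came from a sigmoidal fit of response against log agonist concentration.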

Data set [2] is described as follows: Microsomal stability (liver microsomal assay, mixed cofactors); predicted hepatic clearance. The data set is classed as in vitro ADME. Particulars: liver microsomes 1.0 mg protein/mL (+UDPGA +NADPH), 1 μM analyte, 37° C.; scaled with human liver weight and hepatic blood flow 1.3 L/hr/kg. An outline of the steps:
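Compound at 1 μM with human or rat pooled liver microsomes, alamethicin-treated, pH 7.4 phosphate, NADPH-regenerating plus UDPGA cofactors, 37° C, sampled 0–70 min. Parent/internal standard ratio by RapidFire QToF MS; half-life from initial log-linear decay, scaled to intrinsic and predicted hepatic clearance and hepatic extraction.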

Chain of GLP-1R (P43220 24-463): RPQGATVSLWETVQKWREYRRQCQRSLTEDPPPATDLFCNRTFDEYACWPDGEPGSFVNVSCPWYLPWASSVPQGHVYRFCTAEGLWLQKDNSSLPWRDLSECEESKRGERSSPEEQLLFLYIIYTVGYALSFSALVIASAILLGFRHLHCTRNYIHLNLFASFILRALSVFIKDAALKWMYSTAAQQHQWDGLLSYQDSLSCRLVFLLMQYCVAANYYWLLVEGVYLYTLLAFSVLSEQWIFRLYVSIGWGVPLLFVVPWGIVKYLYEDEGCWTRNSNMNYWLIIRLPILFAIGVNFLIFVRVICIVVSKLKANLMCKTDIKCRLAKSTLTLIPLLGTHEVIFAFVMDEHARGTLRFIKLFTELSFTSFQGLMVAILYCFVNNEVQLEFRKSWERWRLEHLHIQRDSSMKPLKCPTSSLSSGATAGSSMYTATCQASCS

`COCCn1c(Cc2c(F)cc(-c3cccc4c3OC(C)(c3ccc(C(N)=O)cn3)O4)cc2F)nc2ccc(C(=O)O)cc21` (stereo not drawn) [Example 67, 2-(4-(2-(5-carbamoylpyridin-2-yl)-2-methylbenzo[d][1, 3]dioxol-4-yl)-2,6-difluorobenzyl)-1-(2-methoxyethyl)-1H-benzo[d]imidazole-6-carboxylic acid]: in data set [1] (cAMP increase, read-out: EC50), the concentration for a half-maximal effect (EC50) was 20 nM. Also, the “Predicted Hepatic Clearance (Pred. Cl.)” value in data set [2] is recorded as 0.43 L/h/kg.
As to `O=C(O)c1ccc2nc(Cc3c(F)cc(-c4cccc5c4CN(c4ccc(Cl)cc4F)C5=O)cc3F)n(C[C@@H]3CCO3)c2c1` [Example 73, (S)-2-(4-(2-(4-chloro-2-fluorophenyl)-1-oxoisoindolin-4-yl)-2,6-difluorobenzyl)-1-(oxetan-2-ylmethyl)-1H-benzo[d]imidazole-6-carboxylic acid], the EC50 in data set [1] (cAMP increase, read-out: EC50) was 10000 nM. The “Predicted Hepatic Clearance (Pred. Cl.)” value in data set [2] was 0.15 L/h/kg.
For `CC1(c2ccc(Cl)cc2F)Oc2cccc(-c3ccc(Cc4nc5ccc(C(=O)O)cc5n4C[C@@H]4CCO4)cn3)c2O1` (stereo partly drawn) [Example 77, 2-((6-(2-(4-chloro-2-fluorophenyl)-2-methylbenzo[d][1, 3]dioxol-4-yl)pyridin-3-yl)methyl)-1-(((S)-oxetan-2-yl)methyl)-1H-benzo[d]imidazole-6-carboxylic acid] the same measures were 72 nM and 0.26 L/h/kg.
For `COCCn1c(Cc2c(F)cc(-c3cccc4c3OC(C)(c3ccc(C#N)cc3F)O4)cc2F)nc2ccc(C(=O)O)cc21` (stereo not drawn) [Example 89, 2-(4-(2-(4-cyano-2-fluorophenyl)-2-methylbenzo[d][1, 3]dioxol-4-yl)-2,6-difluorobenzyl)-1-(2-methoxyethyl)-1H-benzo[d]imidazole-6-carboxylic acid] the same measures were 15 nM and 0.37 L/h/kg.
In the same order, the values of `COCCn1c(Cc2c(F)cc(-c3cccc4c3OC(C)(c3ccc(C#N)cc3F)O4)c(F)c2F)nc2ccc(C(=O)O)cc21` (single isomer, unassigned) [Example 97, 2-(4-(2-(4-cyano-2-fluorophenyl)-2-methylbenzo[d][1, 3]dioxol-4-yl)-2,3,6-trifluorobenzyl)-1-(2-methoxyethyl)-1H-benzo[d]imidazole-6-carboxylic acid] are 1.9 nM and 0.91 L/h/kg.
In the case of `CC1(c2ccc(Cl)cc2F)Oc2cccc(-c3cc(F)c(Cc4nc5ccc(C(=O)O)cc5n4C[C@@H]4CCO4)c(F)c3)c2O1` (stereo partly drawn) [Example 22, 2-(4-(2-(4-chloro-2-fluorophenyl)-2-methylbenzo[d][1, 3]dioxol-4-yl)-2,6-difluorobenzyl)-1-(((S)-oxetan-2-yl)methyl)-1H-benzo[d]imidazole-6-carboxylic acid], in data set [1] (cAMP increase, read-out: EC50), the half-maximal effective concentration (EC50) was determined as 0.024 nM. Also, the “Predicted Hepatic Clearance (Pred. Cl.)” value in data set [2] is reported as less than 0.11 L/h/kg.
For `COCCn1c(Cc2ccc(-c3cccc4c3OC(c3ccc(Cl)cn3)C4)cc2F)nc2ccc(C(=O)O)cc21` (stereo not drawn) [Example 78, 2-(4-(2-(5-chloropyridin-2-yl)-2,3-dihydrobenzofuran-7-yl)-2-fluorobenzyl)-1-(2-methoxyethyl)-1H-benzo[d]imidazole-6-carboxylic acid] the same measures were 1780 nM and 0.43 L/h/kg.
For `COCCn1c(Cc2c(F)cc(-c3cccc4c3O[C@](C)(c3ccc(Cl)cc3F)O4)cc2F)nc2ccc(C(=O)O)cc21` [Example 103, 2-(4-(2-(4-chloro-2-fluorophenyl)-2-methylbenzo[d][1, 3]dioxol-4-yl)-2,6-difluorobenzyl)-1-(2-methoxyethyl)-1H-benzo[d]imidazole-6-carboxylic acid] the same measures were 8.2 nM and 0.25 L/h/kg.
In the case of `CC1(c2ccc(Cl)cc2F)Oc2cccc(-c3cc(F)c(Cc4nc5ccc(C(=O)O)c(F)c5n4C[C@@H]4CCO4)c(F)c3)c2O1` (stereo partly drawn) [Example 2, 2-(4-(2-(4-chloro-2-fluorophenyl)-2-methylbenzo[d][1, 3]dioxol-4-yl)-2,6-difluorobenzyl)-7-fluoro-1-(((S)-oxetan-2-yl)methyl)-1H-benzo[d]imidazole-6-carboxylic acid], the EC50 in data set [1] (cAMP increase, read-out: EC50) came to 0.17 nM. Also, the “Predicted Hepatic Clearance (Pred. Cl.)” value in data set [2] was less than 0.11 L/h/kg.
As for `O=C(O)c1ccc2nc(Cc3c(F)cc(-c4cccc5c4CN(c4ccc(Cl)cc4F)C5)cc3F)n(C[C@@H]3CCO3)c2c1` [Example 71, (S)-2-(4-(2-(4-chloro-2-fluorophenyl)isoindolin-4-yl)-2,6-difluorobenzyl)-1-(oxetan-2-ylmethyl)-1H-benzo[d]imidazole-6-carboxylic acid], the EC50 in data set [1] (cAMP increase, read-out: EC50) amounted to 10000 nM. Further, the “Predicted Hepatic Clearance (Pred. Cl.)” value in data set [2] is 0.23 L/h/kg.
In the same order, the values of `COCCn1c(Cc2c(F)cc(-c3cccc4c3OC(c3ccc(C#N)cc3F)O4)cc2F)nc2ccc(C(=O)O)cc21` (single isomer, unassigned) [Example 38, 2-(4-(2-(4-cyano-2-fluorophenyl)benzo [d][1,3]dioxol-4-yl)-2,6-difluorobenzyl)-1-(2-methoxyethyl)-1H-benzo[d]imidazole-6-carboxylic acid] are 37 nM and 0.24 L/h/kg.
For `CC1(c2ccc(Cl)cn2)Oc2cccc(-c3cc(F)c(Cc4nc5ccc(C(=O)O)cc5n4CC4(CC#N)CC4)c(F)c3)c2O1` (stereo not drawn) [Example 24, 2-(4-(2-(5-chloropyridin-2-yl)-2-methylbenzo[d][1, 3]dioxol-4-yl)-2,6-difluorobenzyl)-1-((1-(cyanomethyl)cyclo-propyl)methyl)-1H-benzo[d]imidazole 6-carboxylic acid] the same measures were 1.7 nM and 0.16 L/h/kg.
For `CC1(c2ccc(Cl)cn2)Oc2cccc(-c3cc(F)c(Cc4nc5ccc(C(=O)O)cc5n4CC4(CF)CC4)c(F)c3)c2O1` (stereo not drawn) [Example 12, 2-(4-(2-(5-chloropyridin-2-yl)-2-methylbenzo[d][1, 3]dioxol-4-yl)-2,6-difluorobenzyl)-1-((1-(fluoromethyl)cyclo-propyl)methyl)-1H-benzo[d]imidazole-6-carboxylic acid] the same measures were 2.4 nM and 0.24 L/h/kg.
As for `CC1(c2ccc(Cl)cc2F)Oc2cccc(-c3ccc(Cc4nc5ccc(C(=O)O)cc5n4C[C@@H]4CCO4)cc3F)c2O1` (stereo partly drawn) [Example 15, 2-(4-(2-(4-chloro-2-fluorophenyl)-2-methylbenzo[d][1, 3]dioxol-4-yl)-3-fluorobenzyl)-1-(((S)-oxetan-2-yl)methyl)-1H-benzo[d]imidazole-6-carboxylic acid], in data set [1] (cAMP increase, read-out: EC50), the EC50 came to 0.015 nM. For the same molecule, the “Predicted Hepatic Clearance (Pred. Cl.)” value in data set [2] is 0.27 L/h/kg.
In the same order, the values of `CC1(c2ccc(Cl)cn2)Oc2cccc(-c3cc(F)c(Cc4nc5ccc(C(=O)O)cc5n4C[C@@H]4CCO4)c(F)c3F)c2O1` (stereo partly drawn) [Example 70, 2-(4-(2-(5-chloropyridin-2-yl)-2-methylbenzo[d][1, 3]dioxol-4-yl)-2,3,6-trifluorobenzyl)-1-(((S)-oxetan-2-yl)methyl)-1H-benzo[d]imidazole-6-carboxylic acid] are 0.78 nM and 0.21 L/h/kg.
In the same order, the values of `CC1(c2ccc(C#N)cc2F)Oc2cccc(-c3cc(F)c(Cc4nc5ccc(C(=O)O)cc5n4C[C@@H]4CCO4)c(F)c3)c2O1` (single isomer, unassigned) [Example 92] are 3.3 nM and 0.16 L/h/kg.
Molecule `CC1(c2ccc(Cl)cc2F)Oc2cccc(-c3cc(F)c(Cc4nc5ccc(C(=O)O)cc5n4C[C@@H]4CCO4)c(F)c3)c2O1` (single isomer, unassigned) [Example 47] yielded a half-maximal effective concentration (EC50) in data set [1] (EC50, cAMP increase) of 0.07 nM. Besides, in data set [2], the “Predicted Hepatic Clearance (Pred. Cl.)” value is listed as 0.19 L/h/kg.
With `COCCn1c(Cc2ccc(-c3cccc4c3OC(c3ccc(C#N)cc3F)O4)cc2F)nc2ccc(C(=O)O)cc21` (stereo not drawn) [Example 4, 2-(4-(2-(4-cyano-2-fluorophenyl)benzo[d][1, 3]dioxol-4-yl)-2-fluorobenzyl)-1-(2-methoxyethyl)-1H-benzo[d]imidazole-6-carboxylic acid], the concentration for a half-maximal effect (EC50) in data set [1] (cAMP increase, read-out: EC50) came to 103 nM. Also, in data set [2], the “Predicted Hepatic Clearance (Pred. Cl.)” value was 0.25 L/h/kg.
For `COCCn1c(Cc2c(F)cc(-c3cccc4c3OC(C)(c3ccc(C#N)s3)O4)cc2F)nc2ccc(C(=O)O)cc21` (stereo not drawn) [Example 11, 2-(4-(2-(5-cyanothiophen-2-yl)-2-methylbenzo[d][1, 3]dioxol-4-yl)-2,6-difluorobenzyl)-1-(2-methoxyethyl)-1H-benzo[d]imidazole-6-carboxylic acid] the same measures were 34 nM and 0.43 L/h/kg.
For `CC1(c2ccc(C#N)cc2F)Oc2cccc(-c3cc(F)c(Cc4nc5ccc(C(=O)O)cc5n4C[C@@H]4CCO4)c(F)c3F)c2O1` (stereo partly drawn) [Example 90, 2-(4-(2-(4-cyano-2-fluorophenyl)-2-methylbenzo[d][1, 3]dioxol-4-yl)-2,3,6-trifluorobenzyl)-1-(((S)-oxetan-2-yl)methyl)-1H-benzo[d]imidazole-6-carboxylic acid] the same measures were 0.23 nM and 0.28 L/h/kg.
Turning to `CC1(c2ccc(C#N)cc2F)Oc2cccc(-c3cc(F)c(Cc4nc5ccc(C(=O)O)cc5n4C[C@@H]4CCO4)c(F)c3F)c2O1` (single isomer, unassigned) [Example 95], the 50% effective concentration (EC50) in data set [1] (cAMP increase, read-out: EC50) was determined as 21 nM. Besides, the “Predicted Hepatic Clearance (Pred. Cl.)” value in data set [2] is on record as 0.17 L/h/kg.
